How the values were obtained:
Assay type in all cases: functional
Vero [1] = assay: Percentage inhibition against Vero cells at a concentration of 600 uM; settings: Chlorocebus sabaeus
Vero [2] = assay: Dose of compound required to reduced HSV-1 induced cytopathogenicity in vero cells; settings: Chlorocebus sabaeus, read-out: ED50 (the source's name)
Vero [3] = assay: Percentage inhibition against Vero cells at a concentration of 200 uM; settings: Chlorocebus sabaeus

Compound `Cc1cn(C2O[C@H](CO)[C@@H](O)[C@@H]2O)c(=O)n(C)c1=O` (stereo partly drawn) has an inhibition at 600 µM (Vero [1]) of 59%, an EC50 (Vero [2]) of 140 nM and an inhibition at 200 µM (Vero [3]) of 40%.

— ChEMBL document CHEMBL1121995, “Crystal structure and anti herpes simplex virus activity of 2,2'-anhydro-1-beta-D-arabinofuranosylthymine” (1982)
